From article PMC5607274, “An iterative compound screening contest method for identifying target protein inhibitors using the tyrosine-protein kinase Yes” (Scientific Reports, 2017)

Molecular target: T1, human recombinant Yes [a.a. 2–543 (end)] (Homo sapiens, UniProt P07947)
T1 construct: human recombinant Yes [a.a; 2–543 (end)]; purchased BPS Bioscience 40488
Assay: ADP-Glo kinase assay, inhibition rates of Yes phosphorylation activity (first and second screening)
Assay type: biochemical
Conditions: first screening; mean of n = 4 wells; 10 μmol L−1 compound
In short: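 Hits from a first pass were rescreened after re-dissolution from fresh powder. The first pass reported the mean inhibition rate of quadruplicate wells per compound. Activity was that of recombinant human Yes [a.a. 2–543] kinase, read out with the ADP-Glo ADP-detection method.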

T1 sequence (P07947 2-543): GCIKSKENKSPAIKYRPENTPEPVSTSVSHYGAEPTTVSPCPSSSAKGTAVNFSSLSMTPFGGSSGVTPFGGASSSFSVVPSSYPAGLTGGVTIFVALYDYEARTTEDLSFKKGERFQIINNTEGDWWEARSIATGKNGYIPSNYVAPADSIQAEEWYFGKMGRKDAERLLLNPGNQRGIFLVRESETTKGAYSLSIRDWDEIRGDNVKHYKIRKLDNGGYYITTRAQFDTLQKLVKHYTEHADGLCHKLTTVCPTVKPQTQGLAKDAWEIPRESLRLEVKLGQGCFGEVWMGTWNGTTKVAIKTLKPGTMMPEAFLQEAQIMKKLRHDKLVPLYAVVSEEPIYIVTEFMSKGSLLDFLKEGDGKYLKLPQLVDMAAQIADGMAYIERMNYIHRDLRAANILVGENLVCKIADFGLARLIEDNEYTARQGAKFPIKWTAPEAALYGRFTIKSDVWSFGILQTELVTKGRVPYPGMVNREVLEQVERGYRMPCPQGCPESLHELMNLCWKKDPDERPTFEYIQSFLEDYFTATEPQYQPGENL

Structure (SMILES) | First screening IR (inhibition rate) [%]
COc1cc(/C=N/NC(=O)c2cc(-c3cccnc3)nc3ccccc23)ccc1OCc1ccc(Cl)cc1 [Compound Z49638448] | -1
CCn1c(O)c(N=Nc2ccc([N+](=O)[O-])cc2S(=O)(=O)Nc2ccc(C)cc2C)c2ccccc21 [Compound Z49643067] | 44
O=S(=O)(N/N=C/c1ccc(N(c2ccccc2)c2ccccc2)cc1)c1ccc(Br)cc1 [Compound Z49646816] | 27
Oc1[nH]c2ccc(Br)cc2c1N=Nc1ccccn1 [Compound Z49660185] | -9
Cc1nc2ccccc2c(=O)n1/N=C/c1c2ccccc2cc2ccccc12 [Compound Z49732101] | 2
COc1cc(/C=N/Nc2ncnc3scc(-c4ccccc4)c23)ccc1O [Compound Z49889617] | 13
COc1cc(/C=N/Nc2ncnc3sc(C)c(C)c23)ccc1O [Compound Z49890548] | 21
Cc1sc2ncnc(N/N=C/c3cccc(Br)c3)c2c1C [Compound Z49890557] | 5
Cc1sc2ncnc(N/N=C/c3ccncc3)c2c1C [Compound Z49890729] | 3
Cc1sc2ncnc(N/N=C/c3cccc(O)c3)c2c1C [Compound Z49890739] | 14
Cc1cccc(/C=N/Nc2ncnc3sc(C)c(C)c23)c1 [Compound Z49890788] | 3
COc1ccc(/C=N/Nc2ncnc3sc(C)c(C)c23)cc1O [Compound Z49890825] | 4
COc1cc(/C=N/Nc2ncnc3sc(-c4ccccc4)cc23)cc(OC)c1OC [Compound Z49894862] | 34
COc1ccc2c(C)cc(N/N=C/c3ccncc3)nc2c1 [Compound Z50018323] | 3
CCn1c(-c2ccncc2)nc2c1c(=O)[nH]c(=O)n2Cc1ccccc1 [Compound Z50138431] | -3
CCCCCn1c(-c2ccc(Sc3ccc(C)cc3)c([N+](=O)[O-])c2)nc2c1c(=O)[nH]c(=O)n2CCCC [Compound Z50141536] | -20
O=C(OCc1nc(-c2cccs2)no1)c1c(F)cccc1F [Compound Z51088101] | 8
Cc1onc(-c2c(F)cccc2Cl)c1C(=O)OCc1nc(-c2cccs2)no1 [Compound Z51122297] | 20
O=C(OCc1nc(-c2cccs2)no1)c1ccc2ccccc2n1 [Compound Z51170832] | 19
O=C(OCc1nc(-c2cccs2)no1)c1c(F)cccc1Cl [Compound Z51180604] | 8
COc1ccccc1-c1nnc(SCC(=O)c2ccc(NC(C)=O)cc2F)n1-c1ccccc1 [Compound Z51187459] | 0
Cc1nnc(COC(=O)c2cc(-c3ccccc3)nc3c2cnn3C(C)C)o1 [Compound Z51550903] | -3
O=C(CCn1[nH]c(=O)ccc1=O)Nc1ccc(-n2cnnn2)cc1 [Compound Z51737757] | 14
NC(=O)c1ccc(C(=O)N2CCN(c3ccccn3)CC2)cc1 [Compound Z51750245] | 0
CC(C)n1ncc2c(C(=O)N(C)CC(=O)Nc3ccc(F)c(F)c3F)cc(-c3ccccc3)nc21 [Compound Z51761022] | 12
Cc1c(C(=O)NCCOc2ccccc2)[nH]c2c1C(=O)CCC2 [Compound Z51800409] | 4

Structure (SMILES) | First screening IR (inhibition rate) [%]
CC(C)n1ncc2c(C(=O)Nc3ccccc3)cc(-c3ccccc3)nc21 [Compound Z51820408] | -10
Cc1c(C(=O)NCCOc2ccccc2F)[nH]c2c1C(=O)CCC2 [Compound Z51995316] | 36
Cc1cc(C)n(CCCNC(=O)c2[nH]c3c(c2C)C(=O)CCC3)n1 [Compound Z51995634] | 3
Cc1c(C(=O)NCCSc2ccc(Br)cc2)[nH]c2c1C(=O)CCC2 [Compound Z51996046] | 8
CC(C)n1ncc2c(C(=O)N3CCN(c4ccc(F)cc4)CC3)cc(-c3ccccc3)nc21 [Compound Z52005969] | 27
COc1cc(NC(=O)c2cc(-c3ccccc3)nc3c2cnn3C(C)C)cc(OC)c1 [Compound Z52023681] | -11
Cc1nc(-c2cccc(NC(=O)CC(NC(N)=O)c3ccc(Cl)cc3)c2)cs1 (stereo not shown) [Compound Z52058293] | -6
O=S(=O)(c1cccc(Cl)c1Cl)N1CCN(Cc2nc(-c3ccc(F)cc3)no2)CC1 [Compound Z52670207] | -5
CN(CC(=O)N1N=C(c2ccco2)CC1c1cccs1)Cc1nc2ccccc2c(=O)[nH]1 (stereo not shown) [Compound Z52671252] | -3
CN(CC(=O)NC(=O)Nc1ccccc1F)C1CCCc2ccccc21 (stereo not shown) [Compound Z52744280] | -6
CCn1c(-c2ccccc2)c(C(=O)CSc2nnc(-c3cccnc3)n2N)c2ccccc21 [Compound Z54072868] | -13
CC(OC(=O)c1ccc(-c2ccc(O)cc2)cc1)C(=O)c1ccc(F)c(F)c1 (stereo not shown) [Compound Z54379277] | 27
CN1CCc2nc(NC(=O)CCC(=O)c3ccccc3)sc2C1 [Compound Z54410536] | -2
COC(=O)c1ccc2c(=O)[nH]c(COC(=O)Cc3ccsc3)nc2c1 [Compound Z54469331] | 2
CN1/C(=C\C(=O)CN2C(=O)NC3(CCCc4sccc43)C2=O)C(C)(C)c2ccccc21 (stereo not shown) [Compound Z54813762] | -20
Cc1ccc(-c2nn3c(=O)c4c5c(sc4nc3c3ccccc23)CCCC5)cc1 [Compound Z55163996] | 4
Cc1ccc(-c2nn3c(=O)c4c(C)c(C)sc4nc3c3ccccc23)cc1 [Compound Z55164044] | -6
Cc1ccc(-c2nn3c(=O)c4c(-c5cccs5)csc4nc3c3ccccc23)cc1 [Compound Z55164116] | 24
Cc1nn(CCc2nc(-c3ccco3)cs2)c2nc(-c3cccs3)cc(C(F)(F)F)c12 [Compound Z55404718] | 38
Cc1nn(-c2ccccc2)c2nc(-c3ccccc3)cc(C(F)(F)F)c12 [Compound Z55426459] | -6
Cc1nn(CCC#N)c2nc(-c3cccnc3)cc(C(F)(F)F)c12 [Compound Z55426831] | -2
Cc1nn(CCC#N)c2nc(-c3ccccc3)cc(C(F)(F)F)c12 [Compound Z55426833] | -11
CC1=Nc2nc(N3CCCCC3)c(C#N)c3c4c(nc(c23)N1)N(c1ccc(C)cc1)C(=O)C4 [Compound Z55516559] | -13
Cc1ccc(N2C(=O)Cc3c2nc(N)c2c(N)nc(N4CCCC4)c(C#N)c32)cc1C [Compound Z55589600] | 15
CC(C)c1ccc(N2C(=O)Cc3c2nc(N)c2c(N)nc(N4CCCC4)c(C#N)c32)cc1 [Compound Z55589601] | 6

Same assay, conditions: second screening, dissolved from fresh powder; n = 4; 10 μmol L−1 compound

Structure (SMILES) | Second screening IR (inhibition rate) [%]
COc1cc(/C=N/Nc2ncnc3sc(-c4ccccc4)cc23)cc(OC)c1OC [Compound Z49894862] | 22
